These are literature values, as cited in patent US20070248669A1, “Oral sustained release formulation” (priority 2006, published 2007).

Where a name gives a salt, the structure may show the parent alone.

The conditions of data set [1]: daily multiple dosing regimen, patients under treatment.
The conditions of data set [2]: compressed tablets, therapeutic dosing.

For the compound `COc1ccc(C(CN(C)C)C2(O)CCCCC2)cc1` (stereo not drawn) [venlafaxine hydrochloride, 1-[2-(dimethylamino)-1-(4-methoxyphenyl)-ethyl]cyclohexanol], in data set [1], the patients experiencing nausea result was “about forty five” and the patients with vomiting result is listed as “about seventeen”. Moreover, the “time after administration until normal plasma levels are approached” value in data set [2] is given as “about twelve”.
